Source: the NIST ThermoML archive (doi:10.1016/j.fluid.2010.08.010)
Numbers after ± are expanded uncertainties.

Settings: 293.15 K; 101.33 kPa; Liquid; Pycnometric method

| SMILES | mass density [kg/m3] |
| --- | --- |
| Clc1ccccc1 [chlorobenzene] | 1106 ± 6.3 |
| CN(C)C=O [dimethylformamide] | 948.7 ± 5.9 |

Same assay, conditions: 298.15 K; 101.33 kPa; Liquid; Pycnometric method

| SMILES | mass density [kg/m3] |
| --- | --- |
| Cc1ccccc1C [1,2-dimethylbenzene] | 875.9 ± 5.8 |
| Nc1ccccc1 [aniline] | 1017.3 ± 6.1 |
| CCCCCCO [hexan-1-ol] | 815.3 ± 1.2 |
| C=CC#N [acrylonitrile] | 800.3 ± 5.7 |
| CC#N [acetonitrile] | 776.5 ± 1.2 |
| O=[N+]([O-])c1ccccc1 [nitrobenzene] | 1198 ± 6.5 |
